Measured values published in patent US8969297B2, “Methods and compositions for the induction of hypothermia” (priority 2009, dated 2015).

Assays:
[1] = system: asphyxial cardiac arrest rat model; assay: Survival in rat outcome model of asphyxial cardiac arrest; type: in vivo; conditions: for Survival days: individual rats; for effect on mortality / neurological deficit score: compound alone under normothermic conditions
Protocol: (§1) The outcome model of asphyxial cardiac arrest in rats was used for these studies and has been described previously (Katz et al. (1995) J Cereb Blood Flow Metab 15:1032-1039). Briefly, rats were anesthetized with 4% isoflurane, intubated and mechanically ventilated, anesthesia was titrated and vessel catheters inserted. Cardiac arrest was induced by apneic asphyxia with chemical paralysis (vecuronium 2 mg/kg) and discontinuation of ventilation. After 10 minutes of asphyxial cardiac arrest, rats were resuscitated with mechanical ventilation, 100% O2, epinephrine (0.005 mg/kg) and chest compressions. Rats were extubated two hours after resuscitation and placed in a humidity and temperature controlled incubator. Rats were sacrificed by an overdose (5%) of inhaled isoflurane and then perfusion fixed with 100 ml of 4% paraformaldehyde at a perfusion pressure of 100 mmHg. Multiple coronal sections (10 μm thickness) of the brain (Paxinos et al. (1995) J Neurosci Methods 13:139-143) were cryosectioned for future immunostaining and histological evaluation.
(§2) Rats underwent ten minutes of asphyxial cardiac arrest and resuscitation. Five minutes after the return of spontaneous circulation (ROSC), rats were administered 15 ml/kg of iced normal (0.9%) saline (5° C.) (forced hypothermia) or half of the indicated treatment (at room temperature, 21° C.) intravenously over 20 minutes. The first infusion was followed immediately by a second 20-minutee infusion (15 ml/kg) with iced saline (5° C.) for the forced hypothermia group or the second half of the indicated treatment (at 21° C.).
(§3) The rat outcome model of asphyxial cardiac arrest was used to test each of the components of the cocktail to determine the effects of the components on NDS and performance in the Morris Water Maze. Rats undergoing forced hypothermia and rats maintained under normothermic conditions (with 0.5 U/kg vasopressin administered) served as controls.

[2] = Gable (2004); cited from earlier work
[3] = system: rats; conditions: ethanol alone
Protocol: as §2

[4] = system: asphyxial cardiac arrest rat model; assay: Neurological deficit score (NDS) in rat model of asphyxial cardiac arrest; type: in vivo; conditions: normothermic conditions; for NDS 72 hours after resuscitation: ethanol alone or vasopressin alone
Protocol: as §1, with “evaluation. […]” for “evaluation.”
The total ND score is composed of 5 components as outlined below. A normal rat has a ND score of 0% and a brain-dead rat has an ND score of 100% (Katz et al. (1995) J Cereb Blood Flow Metab 15:1032-1039).
as §2, with “Five” for “Rats underwent ten minutes of asphyxial cardiac arrest and resuscitation. Five”
as §3, with “controls. Raw survival and NDS data is shown in Table 1 and Table 2 provides a summary of the survival and NDS data.” for “controls.”

[5] = 20 mcg/kg, normothermic conditions
[6] = 0.005 mg/kg, normothermic conditions
[7] = 0.8 g/kg, normothermic conditions
[8] = 1 mg/kg, normothermic conditions
[9] = 0.25 U/kg, normothermic conditions

For NCCc1ccc(O)c(O)c1 [Dopamine, dopamine], the “Average Survival days” value [1, 5] was 1 days and the Survival days [1, 5] was 1 days.

For CNC[C@H](O)c1ccc(O)c(O)c1 [Epinephrine, epinephrine], the “Average Survival days” value [1, 6] was 1 days, the Survival days [1, 6] was 1 days and the “Average Survival days” value ([1]; 0.01 mg/kg, normothermic conditions) was 1 days.

In the case of CCO [Ethanol, ethanol], the “acute ingestion considered toxic” value [2] is listed as “above 10 g/kg”, the “minimum dose able to reliably induce hypothermia” value [3] is listed as “about 0.75 g/kg” and the “dose at which the hypothermic effect plateaus” value ([3]; higher doses do not further lower the temperature) is listed as 3000 mg/kg. The temperature reached ([3]; maintained during infusion) was “about 33 °C”, the “Average Survival days” value ([1]; 0.5 g/kg, normothermic conditions) was 1 days and the “Average Survival days” value [1, 7] was 1 days. The Survival days [1, 7] was 1 days, the “Average Survival days” value ([1]; 1 g/kg, normothermic conditions) was 1.5 days and the “Average Survival days” value ([1]; 1.5 g/kg, normothermic conditions) was 3 days. The “Average Survival days” value ([1]; 2 g/kg, normothermic conditions) was 3.33 days, the “Average Survival days” value ([1]; 2.5 g/kg, normothermic conditions) was 1 days and the “Average Survival days” value ([1]; 3 g/kg, normothermic conditions) was 1 days. For the same compound, the “effect on mortality / neurological deficit score” value [1] was “mild reduction in mortality”, the “NDS day 3, median neurological deficit score” value ([4]; 1.5 g/kg) was “NA, (36.5)” and the “NDS day 3, median neurological deficit score” value ([4]; 2 g/kg) was “(31)”. The “neurological deficit score at 72 hours after resuscitation” value ([4]; ethanol alone 1 g/kg, 1.5 g/kg and 2 g/kg) was “reduced the neurological deficit score” and the “NDS 72 hours after resuscitation” value [4] was 31.

In the case of CCN(CC)CC(=O)Nc1c(C)cccc1C [Lidocaine, 2-(diethylamino)-N-(2,6-dimethylphenyl)acetamide], the “Average Survival days” value [1, 8] is reported as 1 days and the Survival days [1, 8] is reported as 1 days.

For Cc1[nH]c(=O)c(C#N)cc1-c1ccncc1 [Milrinone], the “Average Survival days” value ([1]; 0.3 mg/kg, normothermic conditions) was 1 days.

With CC(=O)N[C@@H](CS)C(=O)O [N-Acetylcysteine, (2R)-2-acetamido-3-sulfanylpropanoic acid] the “Average Survival days” value ([1]; 50 mg/kg, normothermic conditions) was 1.5 days, the “Average Survival days” value ([1]; 150 mg/kg, normothermic conditions) was 3 days and the “Average Survival days” value ([1]; 300 mg/kg, normothermic conditions) was 2.5 days. The “NDS day 3, median neurological deficit score” value ([4]; 150 mg/kg) was “(38)”, the “NDS day 3, median neurological deficit score” value ([4]; 300 mg/kg) was “NA, (40)” and the “NDS day 3” value ([4]; 300 mg/kg, individual rats) was “NA, 40”.

For NC(=O)CC[C@@H]1NC(=O)[C@H](Cc2ccccc2)NC(=O)[C@H](Cc2ccc(O)cc2)NC(=O)[C@@H](N)CSSC[C@@H](C(=O)N2CCC[C@H]2C(=O)N[C@@H](CCCN=C(N)N)C(=O)NCC(N)=O)NC(=O)[C@H](CC(N)=O)NC1=O [Vasopressin], the “Average Survival days” value ([1]; 0.5 U/kg, normothermic conditions) was 5 days, the “Average Survival days” value ([1]; 0.75 U/kg, normothermic conditions) was 3 days and the “effect on mortality / neurological deficit score” value [1] was “minimal effect on mortality or the neurological deficit score”. The enhancement of survival ([1]; vasopressin alone, normothermic conditions) was “approximately 3 fold”, the “NDS day 3, median neurological deficit score” value ([4]; 0.5 U/kg) was “(36)” and the “NDS day 7” value ([4]; 0.5 U/kg, individual rats) was “NA, NA, 22”. For the same compound, the “NDS day 7” value ([4]; 0.5 U/kg, single surviving rat (summary table)) was “NA, NA, 22”, the “NDS day 3, median neurological deficit score” value ([4]; 0.75 U/kg) was “(30)” and the “NDS 72 hours after resuscitation” value [4] was 30. For the same compound, the “neurological deficits 72 hours after resuscitation” value ([4]; vasopressin alone) was “reduced neurological deficits”.

In the case of Insulin: antihyperglycemic compound, the “Average Survival days” value [1, 9] is reported as 2 days and the Survival days [1, 9] is reported as 2 days.
